PubChem BioAssay (NCI)
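These data come from cells grown in 96-well plates and exposed to compound for 48 hours at five concentrations. GI50: concentration for 50% inhibition of growth. TGI is the concentration that stops growth completely.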

Experiments:
Test in all cases: NCI-60 cell line screen, 48 h
[1] = system: 786-0 renal
[2] = system: A498 renal
[3] = system: A549 NSCLC
[4] = system: ACHN renal
[5] = system: BT-549 breast
[6] = system: CAKI-1 renal
[7] = system: CCRF-CEM leukemia
[8] = system: COLO 205 colon
[9] = system: DU-145 prostate
[10] = system: EKVX NSCLC
[11] = system: HCC-2998 colon
[12] = system: HCT-116 colon
[13] = system: HCT-15 colon
[14] = system: HL-60(TB) leukemia
[15] = system: HOP-62 NSCLC
[16] = system: HOP-92 NSCLC
[17] = system: HS 578T breast
[18] = system: HT29 colon
[19] = system: K-562 leukemia
[20] = system: KM12 colon
[21] = system: LOX IMVI melanoma
[22] = system: M14 melanoma
[23] = system: MALME-3M melanoma
[24] = system: MCF7 breast
[25] = system: MDA-MB-231 breast
[26] = system: MDA-MB-435
[27] = system: MOLT-4 leukemia
[28] = system: NCI-H226 lung
[29] = system: NCI-H23 lung
[30] = system: NCI-H460 lung
[31] = system: NCI/ADR-RES ovarian
[32] = system: OVCAR-3 ovarian
[33] = system: OVCAR-4 ovarian
[34] = system: OVCAR-5 ovarian
[35] = system: OVCAR-8 ovarian
[36] = system: PC-3 prostate
[37] = system: RPMI-8226 leukemia
[38] = system: RXF 393 renal
[39] = system: SF-268 CNS
[40] = system: SF-295 CNS
[41] = system: SF-539 CNS
[42] = system: SK-MEL-2 melanoma
[43] = system: SK-MEL-28 melanoma
[44] = system: SK-MEL-5 melanoma
[45] = system: SK-OV-3 ovarian
[46] = system: SN12C renal
[47] = system: SNB-19 CNS
[48] = system: SNB-75 CNS
[49] = system: SR leukemia
[50] = system: SW-620 colon
[51] = system: T-47D breast
[52] = system: TK-10 renal
[53] = system: U251 CNS
[54] = system: UACC-257 melanoma
[55] = system: UACC-62 melanoma
[56] = system: UO-31 renal
[57] = system: IGROV1 ovarian
[58] = system: NCI-H522 lung

In the case of `O=C(NNS(=O)(=O)c1ccc(Cl)cc1Cl)c1cccnc1Nc1ccc(Cl)cc1`, the GI50 [1] is reported as 19.6 µM, the TGI [1] is reported as 49.4 µM and the GI50 [2] is reported as 25 µM. It also gave a TGI [2] of 47.9 µM, a GI50 [3] of 24.4 µM and a TGI [3] of 70.1 µM. For the same compound, the GI50 [4] was 29.6 µM, the TGI [4] was 93.5 µM and the GI50 [5] was 16.8 µM. The TGI [5] was 35 µM, the GI50 [6] was 19.8 µM and the TGI [6] was 58.7 µM. The GI50 [7] was 6.62 µM, the TGI [7] was > 100 µM and the GI50 [8] was 12.1 µM. The TGI [8] was 24.4 µM, the GI50 [9] was 41.8 µM and the TGI [9] was > 100 µM. The GI50 [10] was 26.1 µM, the TGI [10] was > 100 µM and the GI50 [11] was 13.6 µM. The TGI [11] was 29 µM, the GI50 [12] was 15.5 µM and the TGI [12] was 28.8 µM. For the same compound, the GI50 [13] was 33.4 µM, the TGI [13] was > 100 µM and the GI50 [14] was 23.8 µM. For the same compound, the TGI [14] was 44.4 µM, the GI50 [15] was 16.6 µM and the TGI [15] was 37.7 µM. It also gave a GI50 [16] of 14.6 µM, a TGI [16] of 40.7 µM and a GI50 [17] of 17.8 µM. It also gave a TGI [17] of 41.8 µM, a GI50 [18] of 22.8 µM and a TGI [18] of 54.2 µM. For the same compound, the GI50 [19] was 12.9 µM, the TGI [19] was 25.6 µM and the GI50 [20] was 13.8 µM. It also gave a TGI [20] of 28.6 µM, a GI50 [21] of 21.1 µM and a TGI [21] of 46.5 µM. For the same compound, the GI50 [22] was 19 µM, the TGI [22] was 38.7 µM and the GI50 [23] was 11.1 µM. The TGI [23] was 34.9 µM, the GI50 [24] was 35.2 µM and the TGI [24] was > 100 µM. For the same compound, the GI50 [25] was 19 µM, the TGI [25] was 50.7 µM and the GI50 [26] was 27.3 µM. It also gave a TGI [26] of 81.7 µM, a GI50 [27] of 19.6 µM and a TGI [27] of 58.2 µM. The GI50 [28] was 23.9 µM, the TGI [28] was 58.5 µM and the GI50 [29] was 17.3 µM. The TGI [29] was 42.6 µM, the GI50 [30] was 35.7 µM and the TGI [30] was > 100 µM. For the same compound, the GI50 [31] was 23.4 µM, the TGI [31] was 76.5 µM and the GI50 [32] was 20.6 µM. For the same compound, the TGI [32] was > 100 µM, the GI50 [33] was 28.7 µM and the TGI [33] was > 100 µM. The GI50 [34] was 26.2 µM, the TGI [34] was 78.2 µM and the GI50 [35] was 26.7 µM. For the same compound, the TGI [35] was 74.9 µM, the GI50 [36] was 23.4 µM and the TGI [36] was 80.4 µM. The GI50 [37] was 17.7 µM, the TGI [37] was 53.2 µM and the GI50 [38] was 16.9 µM. For the same compound, the TGI [38] was 43.8 µM, the GI50 [39] was 36.5 µM and the TGI [39] was > 100 µM. It also gave a GI50 [40] of 30.2 µM, a TGI [40] of 77.7 µM and a GI50 [41] of 19 µM. The TGI [41] was 44.5 µM, the GI50 [42] was 18.6 µM and the TGI [42] was 42.5 µM. For the same compound, the GI50 [43] was 35.4 µM, the TGI [43] was > 100 µM and the GI50 [44] was 14.2 µM. It also gave a TGI [44] of 29.7 µM, a GI50 [45] of 17.1 µM and a TGI [45] of 52.4 µM. The GI50 [46] was 31.4 µM, the TGI [46] was > 100 µM and the GI50 [47] was 27 µM. For the same compound, the TGI [47] was > 100 µM, the GI50 [48] was 22.4 µM and the TGI [48] was 84.4 µM. The GI50 [49] was 14.8 µM, the TGI [49] was 38.1 µM and the GI50 [50] was 28.4 µM. The TGI [50] was > 100 µM, the GI50 [51] was 10.8 µM and the TGI [51] was 50.7 µM. It also gave a GI50 [52] of 28.9 µM, a TGI [52] of 84.3 µM and a GI50 [53] of 34.4 µM. The TGI [53] was > 100 µM, the GI50 [54] was 22.9 µM and the TGI [54] was 60.5 µM. The GI50 [55] was 22 µM, the TGI [55] was 75.4 µM and the GI50 [56] was 37.2 µM. The TGI [56] was > 100 µM.

`CCN1C(=O)N(CC)C2C1NN=c1s/c(=C\c3ccc(F)cc3)c(=O)n12` (stereo not drawn) was tested, and the GI50 [1] was 0.702 µM, the TGI [1] was > 100 µM and the GI50 [2] was 0.0394 µM. For the same compound, the TGI [2] was 0.33 µM, the GI50 [3] was 0.347 µM and the TGI [3] was > 100 µM. For the same compound, the GI50 [4] was 0.336 µM, the TGI [4] was > 100 µM and the GI50 [5] was 0.759 µM. For the same compound, the TGI [5] was > 26.1 µM, the GI50 [6] was 0.0722 µM and the TGI [6] was > 100 µM. The GI50 [7] was 0.265 µM, the TGI [7] was > 100 µM and the GI50 [8] was 0.277 µM. For the same compound, the TGI [8] was 1.43 µM, the GI50 [9] was 0.3 µM and the TGI [9] was > 37.8 µM. For the same compound, the GI50 [10] was 0.396 µM, the TGI [10] was > 100 µM and the GI50 [11] was 0.319 µM. For the same compound, the TGI [11] was > 100 µM, the GI50 [12] was 0.211 µM and the TGI [12] was > 100 µM. The GI50 [13] was 0.0876 µM, the TGI [13] was > 100 µM and the GI50 [14] was 0.17 µM. For the same compound, the TGI [14] was 0.514 µM, the GI50 [15] was 0.287 µM and the TGI [15] was > 100 µM. For the same compound, the GI50 [16] was 7.43 µM, the TGI [16] was > 100 µM and the GI50 [17] was 0.183 µM. The TGI [17] was > 100 µM, the GI50 [18] was 0.0614 µM and the TGI [18] was > 100 µM. The GI50 [57] was 0.584 µM, the TGI [57] was > 100 µM and the GI50 [19] was 0.0566 µM. The TGI [19] was > 100 µM, the GI50 [20] was 0.0913 µM and the TGI [20] was > 100 µM. The GI50 [21] was 0.338 µM, the TGI [21] was > 100 µM and the GI50 [22] was 0.136 µM. The TGI [22] was > 100 µM, the GI50 [23] was 28.9 µM and the TGI [23] was > 100 µM. The GI50 [24] was 0.0454 µM, the TGI [24] was > 100 µM and the GI50 [25] was 0.406 µM. For the same compound, the TGI [25] was > 80.2 µM, the GI50 [26] was 0.0317 µM and the TGI [26] was 0.121 µM. For the same compound, the GI50 [27] was 0.418 µM, the TGI [27] was > 100 µM and the GI50 [28] was 20.3 µM. The TGI [28] was > 100 µM, the GI50 [29] was 0.547 µM and the TGI [29] was > 100 µM. For the same compound, the GI50 [30] was 0.218 µM, the TGI [30] was > 100 µM and the GI50 [58] was 0.0931 µM. The TGI [58] was 0.903 µM, the GI50 [31] was 0.168 µM and the TGI [31] was > 100 µM. It also gave a GI50 [32] of 0.0924 µM, a TGI [32] of 0.664 µM and a GI50 [33] of 0.786 µM. The TGI [33] was > 100 µM, the GI50 [34] was 0.473 µM and the TGI [34] was > 100 µM. The GI50 [35] was 0.43 µM, the TGI [35] was > 100 µM and the GI50 [36] was 0.217 µM. For the same compound, the TGI [36] was > 100 µM, the GI50 [37] was 0.326 µM and the TGI [37] was > 63.2 µM. For the same compound, the GI50 [38] was 0.162 µM, the TGI [38] was 0.622 µM and the GI50 [39] was 0.807 µM. The TGI [39] was > 100 µM, the GI50 [40] was 0.0819 µM and the TGI [40] was > 100 µM. For the same compound, the GI50 [41] was 0.158 µM, the TGI [41] was 0.527 µM and the GI50 [42] was 0.425 µM. For the same compound, the TGI [42] was > 100 µM, the GI50 [43] was 0.599 µM and the TGI [43] was > 100 µM. The GI50 [44] was 0.0865 µM, the TGI [44] was 5.7 µM and the GI50 [45] was 0.343 µM. The TGI [45] was > 100 µM, the GI50 [46] was 0.615 µM and the TGI [46] was > 100 µM. The GI50 [47] was 0.374 µM, the TGI [47] was > 100 µM and the GI50 [48] was 0.0474 µM. The TGI [48] was 0.611 µM, the GI50 [49] was 0.0474 µM and the TGI [49] was > 37.3 µM. For the same compound, the GI50 [50] was 0.14 µM, the TGI [50] was > 100 µM and the GI50 [51] was 30.8 µM. For the same compound, the TGI [51] was > 100 µM, the GI50 [52] was 10.5 µM and the TGI [52] was > 100 µM. The GI50 [53] was 0.241 µM, the TGI [53] was > 100 µM and the GI50 [54] was 42.9 µM. For the same compound, the TGI [54] was > 100 µM, the GI50 [55] was 0.111 µM and the TGI [55] was > 100 µM. The GI50 [56] was 0.601 µM and the TGI [56] was > 100 µM.
